One experiment concerns α-syn (1–108). Put plainly: De novo ThT aggregation of 1-108 truncated α-syn. The experiment is classed as biochemical. The conditions noted are these: 25 µM 1-108 α-syn, equimolar peptide. Here is the method: (§1) ThT assay was used for different purposes. […] Lag-time and t½ were calculated as described previously. […] Measurements were taken every 5 min (n = 3).
Aggregation curves were fitted with a symmetric Boltzmann fit and the steady state signal was normalized to 1.

The next experiment relates to small α-syn PFF seeds. Put plainly: Seeded ThT aggregation assay. The experiment is classed as biochemical. The conditions noted are these: then 20 µM α-syn monomer, n = 3. How it is done:
The Thioflavin T (ThT) assay is commonly used for the visualization of α-syn fibrilization, since the dye ThT is able to bind to the amyloidogenic cross-β-sheet proportions of fibril structures. Recombinant α-syn was thawed on ice and centrifuged for 30 min at 21,000 × g and 4 °C. The concentration of the supernatant was determined as described previously. Lyophilized D-peptides were thawed at RT for 1 h and dissolved in 500 µl PBS pH 7.4. After centrifugation for 30 min at 21,000 × g the supernatant concentration was determined by UV–vis using the corresponding extinction coefficient at A280. All ThT assay experiments were performed at 37 °C with 15 µM ThT and 0.05% sodium azide (w/v) in PBS pH 7.4 if not otherwise stated. ThT fluorescence was monitored with bottom optics at λex = 448 nm and λem = 482 nm in a fluorescence plate reader with orbital averaging on 3 mm (Clariostar or Polarstar Optima, BMG labtech, GE). Prior to measurement start, 120 µl sample solution was transferred to a non-binding 96-half area well plate with transparent flat bottom (Corning, USA). One borosilicate glass bead (d = 3.0 mm, Hilgenberg, GE) was added to each well for all de novo aggregation assays. For seeded aggregation assays, no bead was used, and samples were incubated under quiescent conditions. Wells that surrounded the sample wells were filled with the same volume of buffer to improve heat distribution. Experiments were performed with five replicates (n = 5) if not otherwise stated.
as §1
small α-syn PFF seeds were prepared as described previously with some modifications. First, insoluble PFF were produced by incubation of 300 µM recombinant α-syn in a LoBind reaction tube (Eppendorf GmbH, GE) with one borosilicate glass bead (d = 3.0 mm; Hilgenberg, DE) in 20 mM NaPi, pH 7.0, 150 mM NaCl, 0.05% (w/v) sodium azide for one week at 37 °C. The insoluble PFF were harvested by ultracentrifugation at 100,000 × g for 30 min at 4 °C, and the pellet was washed several times with 20 mM NaPi, pH 7.0, 150 mM NaCl. The monomer equivalent concentration was determined by measuring the α-syn concentration in the supernatant after the first centrifugation and subtracting it from the start concentration for fibrilization. […]
(§2) ThT fluorescence progression was measured in a 96-well non-binding half-area plate (Corning, USA) with a FLUOStar platereader (BMG labtech, GE) at λex = 448 nm and λem = 482 nm. […] 10 µM α-syn monomer was incubated with 5, 10 and 20 µM peptide at 37 °C, adding one borosilicate glass bead per well (d = 3.0 mm, Hilgenberg, GE) with continuous orbital shaking at 300 rpm in between reads. […]

A further experiment deals with PC12 cells. The experiment is classed as cell-based. The conditions noted are these: for PC12 cell viability with PFF: 24 h. How it is done:
PC12 cells (Leibniz Institute DSMZ, GE) were cultivated on collagen A-coated (Biochrom GmbH, GE) tissue culture flasks in RPMI 1640 medium supplemented with 5% fetal calf serum and 10% horse serum in a 95% humidified atmosphere with 5% CO2 at 37 °C. 10,000 cells per well in a volume of 100 µl were seeded on collagen A-coated 96-well plates (Thermo Fisher Scientific, USA) and were incubated for 24 h at 37 °C and 300 rpm in a thermo cycler. […] In addition, 15 µM of the peptides alone, cell media, buffer without peptides and 0.1% Triton X-100 (cytotoxic compound) served as controls. After further incubation in a 95% humidified atmosphere with 5% CO2 at 37 °C for 24 h, cell viability was measured using the Cell Proliferation Kit I (MTT) (Roche Applied Science, CH) according to the manufacturer’s protocol. The MTT formazan product was quantified by measuring the absorbance at 570 nm corrected by subtraction of the absorbance at 660 nm in a FLUOStar Optima plate reader (BMG Labtech, GE). All results were normalized to untreated cells grown in medium only. Test on significance was performed using one-way ANOVA with Bonferroni post hoc analysis (OriginPro 2020, OriginLab, USA; n = 4).
Test on significance was performed using one-way ANOVA with Bonferroni post hoc analysis: * […], *** p ≤ 0.01. Mean data are shown with ±SD (n = 4). While the cell viability was reduced by 50 % in the presence of 30 nM soluble small α-syn PFF alone, no toxic effect of the compounds on PC12 was observed. […] Thus, similar cell viability saving effects were found for SVD-1a using a 30-fold lower concentration.

Another experiment has as its system α-syn monomer. The experiment can be described thus: De novo ThT aggregation assay (10 µM α-syn). It counts as biochemical. The conditions noted are these: 37 °C, n = 5. Here is the method:
The Thioflavin T (ThT) assay is commonly used for the visualization of α-syn fibrilization, since the dye ThT is able to bind to the amyloidogenic cross-β-sheet proportions of fibril structures. Recombinant α-syn was thawed on ice and centrifuged for 30 min at 21,000 × g and 4 °C. The concentration of the supernatant was determined as described previously. Lyophilized D-peptides were thawed at RT for 1 h and dissolved in 500 µl PBS pH 7.4. After centrifugation for 30 min at 21,000 × g the supernatant concentration was determined by UV–vis using the corresponding extinction coefficient at A280. […] ThT fluorescence was monitored with bottom optics at λex = 448 nm and λem = 482 nm in a fluorescence plate reader with orbital averaging on 3 mm (Clariostar or Polarstar Optima, BMG labtech, GE). […]
ThT assay was used for different purposes. […] Lag-time and t½ were calculated as described previously. […]
as §2
For each fit, x ½, lag-time and steady state response was determined in order to calculate their mean value for each condition. […]

Entries after “also recorded” stand apart in the source; their conditions may differ. Like-named read-outs stand apart in the source and are kept apart here. Square brackets hold non-standard residues; d marks the D form. Peptide text beside a SMILES is read from it.

For `CC[C@@H](C)[C@@H](NC(=O)[C@@H](Cc1c[nH]cn1)NC(=O)[C@@H](CCC(=O)O)NC(=O)[C@@H](CCC(N)=O)NC(=O)[C@@H](Cc1c[nH]c2ccccc12)NC(=O)[C@@H](Cc1ccc(O)cc1)NC(=O)[C@H](NC(=O)[C@@H](CCC(=O)O)NC(=O)[C@@H](Cc1c[nH]cn1)NC(=O)[C@H](NC(=O)[C@H]1CCCN1C(=O)[C@@H](CCSC)NC(=O)[C@H](N)CCCCN)[C@H](C)O)[C@H](C)O)C(=O)N[C@H](Cc1c[nH]c2ccccc12)C(=O)N[C@H](Cc1c[nH]cn1)C(=O)N[C@H](C)C(N)=O` [SVD-1] (H-[dK][dM][dP][dT][dH][dE][dT][dY][dW][dQ][dE][dH][dI][dW][dH][dA]-NH2), the “inhibition of α-syn (1–108) aggregation” value in the experiment on α-syn (1–108) is listed as “delay of 1- 108 truncated α-syn aggregation”. Further, the “inhibition of seeded aggregation” value with small α-syn PFF seeds (50 nM small α-syn PFF pre-incubated 20 h with peptide, 37 °C quiescent) was “significantly decelerate amyloid growth in the seeded environment; also recorded: inhibits elongation and secondary nucleation of α-syn”. In addition, the “PC12 cell viability with PFF” value in the experiment with PC12 cells (15 µM) came to 89%. Further, the “inhibition of de novo aggregation” value with α-syn monomer (10 µM α-syn, 5, 10 and 20 µM peptide, glass bead, continuous shaking 300 rpm) is “concentration-dependent delay of aggregation onset as well as by a reduction of steady state levels; also recorded: inhibits primary nucleation of α-syn”.
`CC[C@@H](C)[C@@H](NC(=O)[C@@H](Cc1c[nH]cn1)NC(=O)[C@@H](CCC(=O)O)NC(=O)[C@@H](CCC(N)=O)NC(=O)[C@@H](Cc1c[nH]c2ccccc12)NC(=O)[C@@H](Cc1ccc(O)cc1)NC(=O)[C@H](NC(=O)[C@@H](CCC(=O)O)NC(=O)[C@@H](Cc1c[nH]cn1)NC(=O)[C@H](NC(=O)[C@H]1CCCN1C(=O)[C@@H](CC(C)C)NC(=O)[C@H](N)CCCNC(=N)N)[C@H](C)O)[C@H](C)O)C(=O)N[C@H](Cc1c[nH]c2ccccc12)C(=O)N[C@H](Cc1c[nH]cn1)C(=O)N[C@H](C)C(=O)N[C@H](CCCNC(=N)N)C(=O)N[C@H](CCCNC(=N)N)C(=O)N[C@H](CCCNC(=N)N)C(=O)N[C@H](CCCNC(=N)N)C(=O)N[C@H](CCCNC(=N)N)C(N)=O` [SVD-1a] (H-[dR][dL][dP][dT][dH][dE][dT][dY][dW][dQ][dE][dH][dI][dW][dH][dA][dR][dR][dR][dR][dR]-NH2): in the experiment with α-syn (1–108), the “inhibition of α-syn (1–108) aggregation” value was “delay of 1- 108 truncated α-syn aggregation”. Besides, in the experiment with small α-syn PFF seeds (5 µM peptide, 50 nM PFF pre-incubated 20 h), the “effect on elongation rate” value was “a reduction of the elongation rate was observed”. Moreover, the inhibition of seeding result with small α-syn PFF seeds (20 µM or higher peptide (20 µM for SVD-1_scrambled+5r), 50 nM PFF pre-incubated 20 h) is given as “complete inhibition of the seeding capacity”. Further, the “fold lower concentration for similar cell viability saving effect vs SVD-1” value with PC12 cells (0.5 µM SVD-1a vs 15 µM SVD-1) is on record as 30 -fold. For the same molecule, the “PC12 cell viability with PFF” value in the experiment with PC12 cells (0.5 µM) was 82%. In addition, the “inhibition of de novo aggregation at twofold molar excess” value with α-syn monomer (10 µM α-syn, 20 µM peptide) is on record as “completely inhibited”.

Values taken from publication PMC12454639, “Direct disassembly of α-syn preformed fibrils into α-syn monomers by an all-D-peptide” (NPJ Parkinson's Disease, 2025).
